Data from patent US20230310444A1, “COMPOSITIONS AND METHODS FOR TREATING DISEASES AND DISORDERS” (Curis, Inc., priority 2020, published 2023).
Entries after “also recorded” stand apart in the source; their conditions may differ. Read-outs that look alike come from different tables or passages of the source.

What was measured:
[1] = test system: resistant or refractory, advanced NHL; test: Phase I dose escalation trial of Compound 1 oral monotherapy in NHL (NCT03328078); assay type: in vivo, human
Protocol: Seven dosing cohorts included 50 and 100 mg QD, and 50, 100, 200, 300, or 400 mg BID of daily continuous oral monotherapy in 21-Day cycles. Objective included safety and tolerance (primary), pk/pd and early efficacy (secondary), and biomarker correlations (exploratory). 31 patients with resistant or refractory, advanced NHL have been enrolled.

WM = assay type: in vivo, human
Protocol: The patient remained asymptomatic for over 4 years with a slow increase in m-protein and IgM during that time. By mid-2017 they started to experience increased fatigue. […] There was no evidence of CXCR4 genomic alteration. […] Several options were discussed including clinical trials and standard of care Bruton’s tyrosine kinase inhibitor (BTKi) therapy.
Baseline testing in December 2018 included a bone marrow biopsy showing 5-10% involvement by WM, m-protein of 1.66 g/dL, IgM 2,801 mg/dL, and a computed tomography scan without pathological lymphadenopathy or hepatosplenomegaly. Quantitative immunoglobulins and serum protein electrophoresis were obtained each cycle to determine response to treatment (FIG. 1).
The patient initiated treatment at the first dose level, 50 mg. […] Using a standard 3+3 design the subsequent dose level, 100 mg po BID, was cleared per protocol. Considering evidence of response without noted toxicity, the patient was a candidate to escalate to 100 mg po BID starting with cycle 7 day 1 in April 2019. […] They reported a significant improvement in their quality of life with resolution of fatigue and returned to a rigorous daily exercise program that they had been unable to perform for the last 2 years due to WM-related symptoms. In August 2019 they were noted to have an asymptomatic grade 2 creatine phosphokinase (CPK) elevation, extensive work-up and physical exam was unrevealing. […] During cycles 15 through 20, while on the 200 mg po BID dose, the patient’s IgM plateaued around 1500 mg/dL and m-protein plateaued near 0.9 g/dL. Based on evolving safety data at higher dose levels, the patient was escalated to […] starting with cycle 20 in 1/2020.

[2] = 200 mg po BID, cycles 15 through 20

Anemia, Grade 3 or Higher ([1]; 200 mg BID N=5): 0 n (%) [E]
Thrombocytopenia, All Grades ([1]; 200 mg BID N=5): 0 n (%) [E]
Thrombocytopenia, Grade 3 or Higher ([1]; 200 mg BID N=5): 0 n (%) [E]
Anemia, Grade 3 or Higher ([1]; 300 mg BID N=6): 0 n (%) [E]
Thrombocytopenia, All Grades ([1]; 300 mg BID N=6): 0 n (%) [E]
Thrombocytopenia, Grade 3 or Higher ([1]; 300 mg BID N=6): 0 n (%) [E]
Neutropenia, Grade 3 or Higher ([1]; 400 mg BID N=8): 0 n (%) [E]
pharmacokinetics, exposure versus dose ([1]; in vivo): dose-proportional increases in exposure
pharmacokinetic properties ([1]; summary): desirable pharmacokinetic properties
Structure (SMILES): Cc1cc(-c2nc(C(=O)Nc3cc4oc(N5CCOCC5)nc4nc3N3CC[C@@H](O)C3)co2)ccn1 [Compound 1]
safety and tolerance overall ([1]; 50 mg QD to 400 mg BID): well tolerated; also recorded: good safety and tolerance
Tumor Reduction ([1]; DLBCL (transformed MZL), initial 50 mg qd, final 50 mg qd): 24%
Tumor Reduction ([1]; DLBCL-ABC, initial 400 mg bid, final 400 mg bid): 42%
Tumor Reduction ([1]; DLBCL, initial 50 mg bid, final 50 mg bid): 11%
Tumor Reduction ([1]; FL, initial 100 mg qd, final 50 mg qd): 49%
Tumor Reduction ([1]; LPL, initial 200 mg bid, final 300 mg bid *): 20%
Tumor Reduction ([1]; MALT/MZL, initial 400 mg bid, final 300 mg bid*): 25%
Tumor Reduction ([1]; MZL, initial 400 mg bid, final 400 mg bid): 5%
Tumor Reduction ([1]; WM, initial 50 mg bid, final 300 mg bid *): 66%
pharmacodynamic changes, cytokines ([1]; in vivo): cytokine reductions
clinical activity ([1]; summary): preliminary clinical activity
disease control ([1]; treatment duration between < 1 and 18+ months): sustained disease control
IgM (WM; 50 mg, cycle 6 day 1): 2639 mg/dL
IgM (WM; 50 mg, during first 2 cycles, baseline 2801 mg/dL): 2866 mg/dL
m-protein (WM; 50 mg, first six 21-day cycles, baseline 1.66 g/dL): 1.55 g/dL
response (WM; 100 mg po BID, cycles 7 and 8): stable disease (SD)
IgM plateau (WM; [2]): around 1500 mg/dL
m-protein plateau (WM; [2]): ~0.9 g/dL
IgM (WM; 300 g po BID from cycle 20, C22 day 1): 1241 mg/dL
m-protein (WM; after 100 mg po BID cycles 7-8, prior to 200 mg BID escalation): 1.37 g/dL
m-protein (WM; from cycle 20, C22 day 1): 0.68 g/dL
